The values that follow come from BindingDB's records for doi:10.7270/Q2WQ02FK (The Scripps Research Institute Molecular Screening Center, 2013).

This test concerns the target T1, T cell receptor alpha variable 4 (Homo sapiens, UniProt A0A0B4J268).
T1 sequence (A0A0B4J268 whole entry): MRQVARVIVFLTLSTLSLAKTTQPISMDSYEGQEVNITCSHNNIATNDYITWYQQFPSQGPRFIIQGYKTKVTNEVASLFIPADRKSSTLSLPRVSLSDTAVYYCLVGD

Molecules are shown by their SMILES.

As a reminder, the IC50 is the concentration needed to halve the response being measured. Regarding `O=C(NC(C(=O)NN=CC1C=C([N+](=O)[O-])C=CC1=O)c1n[nH]c(=O)c2ccccc12)c1ccccc1` (configuration not stated) [N-[2-[2-[(E)-(3-nitro-6-oxidanylidene-cyclohexa-2,4-dien-1-ylidene)methyl]hydrazinyl]-2-oxidanylidene-1-(4-oxidanylidene-3H-phthalazin-1-yl)ethyl]benzamide], the IC50 is over 94.1 µM. The same measure for `COc1ccc(C(=O)CC=NNC(=O)c2ccc(Cl)cc2)cc1` [SMR000499516]: over 94.1 µM; for `Cc1c(NC(=S)NN=CC2C=C([N+](=O)[O-])C=CC2=O)c(=O)n(-c2ccccc2)n1C` (configuration not stated) [SMR000415003]: over 94.1 µM.

For `O=C(CSc1nc2ccccc2s1)N/N=C/C1C=C([N+](=O)[O-])C=CC1=O` (configuration not stated) [MLS000777065], the IC50 is over 94.1 µM. Next, `O=C(N/N=C/C1C=C([N+](=O)[O-])C=C([N+](=O)[O-])C1=O)/C(=C\c1cccs1)NC(=O)c1ccccc1` (configuration not stated) [SMR000207704]: over 94.1 µM; `CCC(NNC(=O)c1ccccc1O)=C1C(=O)NC(=O)N(Cc2ccccc2)C1=O` [2-hydroxy-N'-[(1E)-1-[2,4,6-trioxo-1-(phenylmethyl)-1,3-diazinan-5-ylidene]propyl]benzohydrazide]: over 94.1 µM; `CCOC(=O)c1c(C)[nH]c(C(=O)N/N=C/C2C=C([N+](=O)[O-])C=CC2=O)c1C` (configuration not stated) [ethyl 2,4-dimethyl-5-[[[(E)-(3-nitro-6-oxocyclohexa-2,4-dien-1-ylidene)methyl]amino]carbamoyl]-1H-pyrrole-3-carboxylate]: over 94.1 µM. Next, `Oc1ccc(CN=Nc2ncnc3c2ncn3Cc2ccccc2)cc1O` [(4Z)-2-oxidanyl-4-[[2-[9-(phenylmethyl)purin-6-yl]hydrazinyl]methylidene]cyclohexa-2,5-dien-1-one]: over 94.1 µM; `O=C(O)c1ccccc1NS(=O)(=O)c1ccc(N=NCc2ccc(O)c(O)c2)c([N+](=O)[O-])c1` [SMR001238114]: 32.5 µM; `COC1=CC(=O)C(/C=N/NC(=O)c2ccncc2)C(OC)=C1[N+](=O)[O-]` (configuration not stated) [MLS000673335]: over 94.1 µM.

In turn, `O=[N+]([O-])c1cc(Br)c(O)c(CN=Nc2nnnn2-c2cccc3ccccc23)c1` [(6E)-2-bromo-6-[[2-(1-naphthalen-1-yltetrazol-5-yl)hydrazinyl]methylidene]-4-nitrocyclohexa-2,4-dien-1-one] displayed an IC50 of over 94.1 µM. For the compound `O=C(NN=CC1=CC(=O)C(=O)CC1)NN=CC1=CC(=O)C(=O)CC1` [1,3-bis[[(Z)-(3-hydroxy-4-oxocyclohexa-2,5-dien-1-ylidene)methyl]amino]urea], inhibition was half-maximal at 1.03 µM (IC50). The same measure for `CC1=CC([N+](=O)[O-])=CC(/C=N/n2c(C)nc3ccccc3c2=O)C1=O` (configuration not stated) [MLS000778735]: over 94 µM; for `O=C1C=CC([N+](=O)[O-])=CC1/C=N/n1c(COc2ccccc2)nc2ccccc2c1=O` (configuration not stated) [3-[[(E)-(3-nitro-6-oxocyclohexa-2,4-dien-1-ylidene)methyl]amino]-2-(phenoxymethyl)quinazolin-4-one]: over 94.1 µM. On to `CCc1n[nH]c(=S)n1N=CC1C=C(OC)C=C([N+](=O)[O-])C1=O` (configuration not stated) [(6E)-6-[[(3-ethyl-5-sulfanylidene-1H-1,2,4-triazol-4-yl)amino]methylidene]-4-methoxy-2-nitro-1-cyclohexa-2,4-dienone], for which the IC50 stood at 18.4 µM.

On to `CC(NNC(=O)c1ccc(-c2ccccc2)cc1)=C1C(=O)c2ccccc2C1=O` [N-[(E)-1-(1,3-dioxoinden-2-yl)ethylideneamino]-4-phenylbenzamide], for which the IC50 is over 94.1 µM. Next, `Oc1c(Br)cc(CC=Nc2cc(O)c3cccnc3c2O)cc1Br` [7-[2-(3,5-dibromo-4-hydroxyphenyl)ethylamino]quinoline-5,8-dione]: 18.8 µM; `O=C1NC(=O)N(CCc2ccccc2)C(=O)C1=CNNC(=O)c1ccccc1O` [2-hydroxy-N'-[(E)-[2,4,6-trioxo-1-(2-phenylethyl)-1,3-diazinan-5-ylidene]methyl]benzohydrazide]: over 94 µM. Next, `CN1C(=O)C(C=NNC(=O)c2cc3ccccc3cc2O)c2ccccc21` (configuration not stated) [MLS000912237]: over 94.1 µM; `Cc1cc(C(=O)N/N=C/C2C=C(Cl)C=C([N+](=O)[O-])C2=O)c2ccccc2n1` (configuration not stated) [N'-[(E)-(3-chloranyl-5-nitro-6-oxidanylidene-cyclohexa-2,4-dien-1-ylidene)methyl]-2-methyl-quinoline-4-carbohydrazide]: over 94.1 µM.

In turn, `C=CCN1C(=O)/C(=N\NC(=O)CNC(=O)/C=C/c2ccco2)c2ccccc21` [(E)-N-[1-Allyl-2-oxo-1,2-dihydro-indol-(3Z)-ylidene-hydrazinocarbonylmethyl]-3-furan-2-yl-acrylamide] displayed an IC50 of over 94.1 µM.

The compound `Cc1cc(C(=O)N/N=C/C2C=C(Br)C=C([N+](=O)[O-])C2=O)c2ccccc2n1` (configuration not stated) [MLS000585468] had an IC50 of over 94.1 µM. The same measure for `O=C1NC(=O)N(Cc2ccco2)C(=O)C1=CNNC(=O)c1ccccc1O` [N'-[(E)-[1-(furan-2-ylmethyl)-2,4,6-tris(oxidanylidene)-1,3-diazinan-5-ylidene]methyl]-2-oxidanyl-benzohydrazide]: over 94 µM. As for `O=C1C=CC([N+](=O)[O-])=CC1C=NNC(=S)Nc1ccc(Cl)cc1Cl` (configuration not stated) [MLS000777079], the IC50 was over 94.1 µM. `O=C1C([N+](=O)[O-])=CC(Cl)=CC1C=NNC(=S)Nc1ccc(S(=O)(=O)N2CCOCC2)cc1` (configuration not stated) [1-[[(E)-(3-chloro-5-nitro-6-oxo-1-cyclohexa-2,4-dienylidene)methyl]amino]-3-[4-(4-morpholinylsulfonyl)phenyl]thiourea] returned an IC50 of over 94.1 µM.

Compound `COc1ccc(CC(=O)N/N=C/C2C=C([N+](=O)[O-])C=C(Br)C2=O)cc1` (configuration not stated) came in with an IC50 of over 94.1 µM. Next, `CC1=CC([N+](=O)[O-])=CC(/C=N/NC(=O)C2COc3ccccc3O2)C1=O` (configuration not stated) [N'-[(E)-(5-methyl-3-nitro-6-oxocyclohexa-2,4-dien-1-ylidene)methyl]-2,3-dihydro-1,4-benzodioxine-3-carbohydrazide]: over 94.2 µM. The compound `O=C(CNC(=O)c1ccccc1Br)N/N=C/C1C=C([N+](=O)[O-])C=C(Br)C1=O` (configuration not stated) [2-bromanyl-N-[2-[2-[(E)-(5-bromanyl-3-nitro-6-oxidanylidene-cyclohexa-2,4-dien-1-ylidene)methyl]hydrazinyl]-2-oxidanylidene-ethyl]benzamide] yielded an IC50 of over 94.1 µM.

With `O=C(N/N=C/C1C=C([N+](=O)[O-])C=CC1=O)/C(=C\c1cccs1)NC(=O)c1ccccc1` (configuration not stated) [MLS000332530], the IC50 was over 94.1 µM. In the case of `O=C(N/N=C/C1C=CC=C([N+](=O)[O-])C1=O)c1cccs1` (configuration not stated), the IC50 was over 94.1 µM. The same measure for `O=C(N/N=C/C1C=C([N+](=O)[O-])C=CC1=O)c1cccc(N2CCCC2=O)c1` (configuration not stated): over 94.1 µM. The compound `CC1=CC(/C=N/n2c(COc3ccccc3C)nc3ccccc3c2=O)C(=O)C([N+](=O)[O-])=C1` (configuration not stated) returned an IC50 of over 94.1 µM. The same measure for `COC1=CC([N+](=O)[O-])=CC(/C=N/NC(=O)c2cc(C)nc3ccccc23)C1=O` (configuration not stated): over 94.1 µM; for `O=C(N/N=C/C1C=C(Cl)C=C([N+](=O)[O-])C1=O)c1cccc(S(=O)(=O)N2CCOCC2)c1` (configuration not stated) [MLS002155639]: over 94.1 µM. The same measure for `O=C(N/N=C/C1C=C(Cl)C=C([N+](=O)[O-])C1=O)c1ccc2c(c1)OCO2` (configuration not stated) [N'-[(E)-(3-chloranyl-5-nitro-6-oxidanylidene-cyclohexa-2,4-dien-1-ylidene)methyl]-1,3-benzodioxole-5-carbohydrazide]: over 94.1 µM; for `Cc1cc(C(=O)NN=CC2C=C(Cl)C=C([N+](=O)[O-])C2=O)[nH]n1` (configuration not stated) [SMR000414694]: over 94.1 µM. The same measure for `O=C1NC(=O)N(Cc2ccco2)C(=O)C1=CNNC(=O)c1ccccc1` [N'-[(E)-[1-(furan-2-ylmethyl)-2,4,6-tris(oxidanylidene)-1,3-diazinan-5-ylidene]methyl]benzohydrazide]: over 94.2 µM; for `Cc1ccccc1C(=O)Nc1cccc(C(=O)N/N=C/C2C=C(Cl)C=C([N+](=O)[O-])C2=O)c1` (configuration not stated) [N-(3-{[(2E)-2-(5-chloro-2-hydroxy-3-nitrobenzylidene)hydrazino]carbonyl}phenyl)-2-methylbenzamide]: over 94.1 µM.

`Cc1cc2cc(CNC(=O)c3ccc(C)c([N+](=O)[O-])c3)ccc2[nH]1` [MLS000724615] gave an IC50 of over 94.1 µM. The compound `Cc1ccc(C(=O)Nc2nc(C(C)(C)C)cs2)s1` [N-(4-tert-butyl-2-thiazolyl)-5-methyl-2-thiophenecarboxamide] returned a 50% inhibitory concentration (IC50) of over 94.1 µM. The same measure for `O=C1CC(=O)c2c(O)cc(O)c(O)c2C1=O` [4,5,7,8-tetrahydroxy-1,2-naphthoquinone]: over 94.1 µM; for `Cc1cc(=O)oc2cc(OCC(=O)N/N=C/C3C=C([N+](=O)[O-])C=CC3=O)ccc12` (configuration not stated) [MLS000588734]: over 94.1 µM; for `O=Nc1[nH]c(=O)c(CC(=O)c2ccccc2)nc1NO` [SMR000539633]: over 94.2 µM. Next, `O=C1C([N+](=O)[O-])=CC=CC1/C=N/n1cnc2scc(-c3ccc(Cl)cc3)c2c1=O` (configuration not stated) [SMR000314525]: over 94.1 µM; `CCOC(=O)C1C(CC)=Nc2ccccc2N=C1NC(=O)Nc1ccc(Cl)c(Cl)c1` (configuration not stated): 10.7 µM; `Nc1nnc(CC(=O)N/N=C/C2C=C([N+](=O)[O-])C=CC2=O)s1` (configuration not stated) [2-(5-amino-1,3,4-thiadiazol-2-yl)-N'-[(E)-(3-nitro-6-oxo-1-cyclohexa-2,4-dienylidene)methyl]acetohydrazide]: over 94.1 µM. `CC1=CC(/C=N/n2c(CO[N-][C+](C)c3ccccc3)nc3ccccc3c2=O)C(=O)C([N+](=O)[O-])=C1` (configuration not stated) had an IC50 of over 94.1 µM.
